How the values were obtained:
Test in all cases: relative viability (nuclei count vs DMSO), 5 days (fraction); higher = more cells survive
Avagacestat + Olaparib = compound: NC(=O)[C@@H](CCC(F)(F)F)N(Cc1ccc(-c2ncon2)cc1F)S(=O)(=O)c1ccc(Cl)cc1 [Avagacestat] + O=C(c1cc(Cc2n[nH]c(=O)c3ccccc23)ccc1F)N1CCN(C(=O)C2CC2)CC1 [Olaparib] (partner 8 µM)
Procedure, shortened: (§1)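 After 5 days of treatment, lung cancer cells in 1536-well plates were fixed and stained in a single step (final 0.05% Triton X-100, 1% formaldehyde, 1 ug/ml Hoechst) and their nuclei counted on 4× images. Treatment had been applied by pin tool the day after seeding as one drug alone or as a fixed anchor-drug dose with five library-drug doses (not always all listed) in √10 steps. Relative viability is the nuclei count of treated wells divided by that of vehicle wells, and values are medians of duplicate plates.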

Avagacestat + Vorinostat = compound: NC(=O)[C@@H](CCC(F)(F)F)N(Cc1ccc(-c2ncon2)cc1F)S(=O)(=O)c1ccc(Cl)cc1 [Avagacestat] + O=C(CCCCCCC(=O)Nc1ccccc1)NO [Vorinostat] (partner 1 µM)
Procedure, shortened: as §1

Avagacestat + Linsitinib = compound: NC(=O)[C@@H](CCC(F)(F)F)N(Cc1ccc(-c2ncon2)cc1F)S(=O)(=O)c1ccc(Cl)cc1 [Avagacestat] + C[C@]1(O)C[C@@H](c2nc(-c3ccc4ccc(-c5ccccc5)nc4c3)c3c(N)nccn32)C1 [Linsitinib] (partner 1 µM)
Procedure, shortened: as §1

Avagacestat + Pemetrexed = compound: NC(=O)[C@@H](CCC(F)(F)F)N(Cc1ccc(-c2ncon2)cc1F)S(=O)(=O)c1ccc(Cl)cc1 [Avagacestat] + Nc1nc2[nH]cc(CCc3ccc(C(=O)N[C@@H](CCC(=O)O)C(=O)O)cc3)c2c(=O)[nH]1 [Pemetrexed] (partner 0.2 µM)
Procedure, shortened: as §1

Row | Cell Line | relative viability (Avagacestat + Olaparib; first compound 0.08 µM) | relative viability (Avagacestat + Olaparib; first compound 0.253 µM) | relative viability (Avagacestat + Olaparib; first compound 0.8 µM) | relative viability (Avagacestat + Olaparib; first compound 2.53 µM) | relative viability (Avagacestat + Olaparib; first compound 8 µM) | relative viability (Avagacestat + Vorinostat; first compound 0.08 µM) | relative viability (Avagacestat + Vorinostat; first compound 0.253 µM) | relative viability (Avagacestat + Vorinostat; first compound 0.8 µM) | relative viability (Avagacestat + Vorinostat; first compound 2.53 µM) | relative viability (Avagacestat + Vorinostat; first compound 8 µM) | relative viability (Avagacestat + Linsitinib; first compound 0.08 µM) | relative viability (Avagacestat + Linsitinib; first compound 0.253 µM) | relative viability (Avagacestat + Linsitinib; first compound 0.8 µM) | relative viability (Avagacestat + Linsitinib; first compound 2.53 µM) | relative viability (Avagacestat + Linsitinib; first compound 8 µM) | relative viability (Avagacestat + Pemetrexed; first compound 0.08 µM) | relative viability (Avagacestat + Pemetrexed; first compound 0.253 µM) | relative viability (Avagacestat + Pemetrexed; first compound 0.8 µM) | relative viability (Avagacestat + Pemetrexed; first compound 2.53 µM) | relative viability (Avagacestat + Pemetrexed; first compound 8 µM)
1 | NCI-H3122 | 0.717 | 0.735 | 0.885 | 0.659 | 0.645 | 1.07 | 1.4 | 1.01 | 1.02 | 0.918 | 1.05 | 1.02 | 0.989 | 1.01 | 1 | 0.216 | 0.238 | 0.208 | 0.195 | 0.205
2 | PC-3 [JPC-3] | 1.21 | 1.28 | 1.36 | 1.13 | 1.2 | 0.944 | 0.87 | 1.33 | 0.857 | 0.949 | 1.01 | 1.02 | 0.976 | 1.04 | 0.967 | 1.24 | 1.36 | 1.62 | 1.25 | 1.04
3 | PC-14 | 0.316 | 0.418 | 0.298 | 0.251 | 0.3 | 0.774 | 0.725 | 0.808 | 0.589 | 0.619 | 1.11 | 1.07 | 1.09 | 1 | 0.855 | 0.137 | 0.142 | 0.134 | 0.124 | 0.136
4 | RERF-LC-KJ | 1.07 | 1.12 | 1.06 | 1 | 0.978 | 0.724 | 0.64 | 0.801 | 0.685 | 0.601 | 0.896 | 0.981 | 0.92 | 0.848 | 0.761 | 0.479 | 0.477 | 0.461 | 0.465 | 0.437
